Assay results reported in patent publication EP1911451A1, “Protein-kinase CK2 inhibitors and their therapeutic applications” (INSERM (Institut National de la Santé et de la Recherche …, priority 2006, dated 2008).
Where two headings read alike, the source gives them in different places.

Assays:
CK2α [1] = biological target: T1, CK2α (Homo sapiens, UniProt P68400); test: in vitro CK2 kinase assay (inhibition of catalytic activity); format: biochemical
Description: (§1) Lineweaver-Burk inhibition plots of CK2α in the presence of different concentrations of Quinobene (0; 0.1; 0.2; 0.4; 0.8 µM). • (A) variable concentrations of ATP with Peptide] = 500 µM. (B) variable concentrations of Peptide with [ATP] = 200 µM. […] Lineweaver-Burk inhibition plots of CK2α in the presence of different concentrations of CCB8 (0; 1.1; 2.2 µM for ATP competition assay; 0; 1.1 µM for peptide competition assay). (A) variable concentrations of ATP with [Peptide] = 166 µM. (B) variable concentrations of Peptide with [ATP] = 25 µM. […] A549 cells were treated for 48 hours with increasing concentrations of CCB8 (σ) or Naphtobene (ν). Cell viability was evaluated with the Cell Titer Glo kit (Promega).
4,4'-bis(8-hydroxy-5-sulfo-7-quinolineazo)stilbene-2,2'-disulfonic acid (Quinobene) or 4,4'-[(1-hydroxy-4-sulfo-2-naphtyl)azo] 2,2'-stilbenedisulfonic acid (Naphtobene) were obtained from the National Cancer Institute and screened for CK2 inhibitors using an in vitro CK2 kinase assay (Filhol et al., 1991).
CCB8 was tested in the in vitro CK2 assay.

CK2α [2] = biological target: T1, CK2α; test: Lineweaver-Burk inhibition plots (ATP and peptide competition); format: biochemical; conditions: for mode of inhibition: with respect to ATP or the phosphoacceptor peptide
Description: as §1

A549 cells = test: Cancer cell viability (Cell Titer Glo kit); format: cell-based; conditions: increasing concentrations, 48 hours
Description: as §1
A549 cells were treated with increasing concentrations of TBB 4,5,6,7-TetraBromoBenzotriazole (Calbiochem®) or Quinobene for 48 hours and the cell viability was monitored.

[3] = system: non-small cell lung cancer cells (A549); test: Confocal microscopic analysis of cell uptake; format: cell-based; conditions: 100 µM, 48 hours, confocal microscopy
[4] = inhibition of CK2 catalytic activity, dose-dependent (Figure 2), read-out: half-maximal effective concentration
[5] = inhibition of the catalytic activity of recombinant CK2α, read-out: IC50

T1 sequence (P68400 whole entry): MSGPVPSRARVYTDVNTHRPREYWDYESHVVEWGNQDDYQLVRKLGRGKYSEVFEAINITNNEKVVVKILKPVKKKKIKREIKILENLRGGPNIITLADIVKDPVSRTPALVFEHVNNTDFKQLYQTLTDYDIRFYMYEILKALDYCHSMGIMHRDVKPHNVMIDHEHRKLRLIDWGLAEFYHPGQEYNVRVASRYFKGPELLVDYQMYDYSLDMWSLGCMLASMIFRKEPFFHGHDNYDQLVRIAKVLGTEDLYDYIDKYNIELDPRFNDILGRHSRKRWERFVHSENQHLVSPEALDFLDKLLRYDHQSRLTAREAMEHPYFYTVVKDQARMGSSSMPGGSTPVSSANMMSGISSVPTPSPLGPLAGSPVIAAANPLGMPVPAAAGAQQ

SMILES | IC50 (CK2α [1]; inhibition of the catalytic activity of recombinant CK2α) | Ki (CK2α [2]; deduced from Lineweaver-Burk graph (Figure 5), read-out: Ki constant) | mode of inhibition (CK2α [2]) | cell viability / proapoptotic efficacy (A549 cells) | IC50 (CK2α [1]; [4]) | IC50 (CK2α [1]; [5]) | cell permeability [3]
Nc1ccc(C(=O)O)cc1N=Nc1ccc(C=Cc2ccc(N=Nc3cc(C(=O)O)ccc3N)cc2S(=O)(=O)O)c(S(=O)(=O)O)c1 [CCB8] | 600 nM | 85 nM | non-competitive inhibitor | potency correlates with its proapoptotic efficacy |  |  | 
O=S(=O)(O)c1cc(/N=N/c2cc(S(=O)(=O)O)c3ccccc3c2O)ccc1/C=C/c1ccc(/N=N/c2cc(S(=O)(=O)O)c3ccccc3c2O)cc1S(=O)(=O)O [Naphtobene, 4,4'-[(1-hydroxy-4-sulfo-2-naphtyl)azo] 2,2'-stilbenedisulfonic acid] |  |  |  | potency correlates with its proapoptotic efficacy | 300 nM | 300 nM | cell permeable
O=S(=O)(O)c1cc(/N=N/c2cc(S(=O)(=O)O)c3cccnc3c2O)ccc1/C=C/c1ccc(/N=N/c2cc(S(=O)(=O)O)c3cccnc3c2O)cc1S(=O)(=O)O [Quinobene, 4,4'-bis(8-hydroxy-5-sulfo-7-quinolineazo)stilbene-2,2'-disulfonic acid] |  |  | non-competitive inhibitor | potency correlates with its proapoptotic efficacy | 130 nM | 130 nM | 
